Our source for the IC50 values is patent US12595234B2, “Bioactive benzocycloheptene analogues from himachalenes and its applications” (Council of Scientific and Industrial Research, priority 2020, dated 2026).

The target in the test is MK2 (Homo sapiens, UniProt P49137). In words: Inhibition in solution assay of kinase MK2. The format is biochemical. The settings on record: IC50 extrapolated from the dose dependent inhibition graphs (FIG. 6).
MK2, sequence (P49137 whole entry, species assumed): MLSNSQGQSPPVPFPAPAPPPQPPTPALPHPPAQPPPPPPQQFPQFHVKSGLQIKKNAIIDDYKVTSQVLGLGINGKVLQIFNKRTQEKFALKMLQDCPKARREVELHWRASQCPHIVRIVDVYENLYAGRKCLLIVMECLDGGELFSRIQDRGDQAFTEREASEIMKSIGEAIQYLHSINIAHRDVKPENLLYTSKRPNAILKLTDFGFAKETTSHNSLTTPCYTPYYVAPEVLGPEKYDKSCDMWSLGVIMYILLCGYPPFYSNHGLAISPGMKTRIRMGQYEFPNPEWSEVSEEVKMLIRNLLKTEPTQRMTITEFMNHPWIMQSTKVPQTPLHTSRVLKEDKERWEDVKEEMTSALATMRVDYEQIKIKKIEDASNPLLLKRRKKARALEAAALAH

From the text: Determination of affinity of MK2 inhibitors (IC50) through inhibition in solution assay of kinase MK2 by various compounds of general formula I-VI

Consider `Cc1ccc(-c2ccc3c(ccc4sc5c(c43)NC[C@@H](C)NC5=O)n2)cn1` [PF 3644022], for which the half-inhibitory concentration (IC50) is 585 nM.

In general, IC50 refers to the concentration at which inhibition is half-maximal.
